ChEMBL document CHEMBL4184305, “Inhibition of histone lysine methyltransferases G9a and GLP by ejection of structural Zn(II)” (Bioorg Med Chem Lett, 2018)
The source made the active and inactive calls. No cut-off for these calls is given here.

What was measured:
[1] = molecular target: T1, Histone-lysine N-methyltransferase EHMT2 (Homo sapiens) (UniProt Q96KQ7); experiment: Inhibition of wild type recombinant human histone lysine methyltransferase G9a (913 to 1193 residues) expressed in Escherichia coli Rosetta BL21 DE3 PlysS assessed as zinc ions ejection from Cys4-Zn finger at 2.5 to 100 uM after 500 to 3500 secs by FluoZin-3 based fluorescence assay
T1 sequence (whole entry): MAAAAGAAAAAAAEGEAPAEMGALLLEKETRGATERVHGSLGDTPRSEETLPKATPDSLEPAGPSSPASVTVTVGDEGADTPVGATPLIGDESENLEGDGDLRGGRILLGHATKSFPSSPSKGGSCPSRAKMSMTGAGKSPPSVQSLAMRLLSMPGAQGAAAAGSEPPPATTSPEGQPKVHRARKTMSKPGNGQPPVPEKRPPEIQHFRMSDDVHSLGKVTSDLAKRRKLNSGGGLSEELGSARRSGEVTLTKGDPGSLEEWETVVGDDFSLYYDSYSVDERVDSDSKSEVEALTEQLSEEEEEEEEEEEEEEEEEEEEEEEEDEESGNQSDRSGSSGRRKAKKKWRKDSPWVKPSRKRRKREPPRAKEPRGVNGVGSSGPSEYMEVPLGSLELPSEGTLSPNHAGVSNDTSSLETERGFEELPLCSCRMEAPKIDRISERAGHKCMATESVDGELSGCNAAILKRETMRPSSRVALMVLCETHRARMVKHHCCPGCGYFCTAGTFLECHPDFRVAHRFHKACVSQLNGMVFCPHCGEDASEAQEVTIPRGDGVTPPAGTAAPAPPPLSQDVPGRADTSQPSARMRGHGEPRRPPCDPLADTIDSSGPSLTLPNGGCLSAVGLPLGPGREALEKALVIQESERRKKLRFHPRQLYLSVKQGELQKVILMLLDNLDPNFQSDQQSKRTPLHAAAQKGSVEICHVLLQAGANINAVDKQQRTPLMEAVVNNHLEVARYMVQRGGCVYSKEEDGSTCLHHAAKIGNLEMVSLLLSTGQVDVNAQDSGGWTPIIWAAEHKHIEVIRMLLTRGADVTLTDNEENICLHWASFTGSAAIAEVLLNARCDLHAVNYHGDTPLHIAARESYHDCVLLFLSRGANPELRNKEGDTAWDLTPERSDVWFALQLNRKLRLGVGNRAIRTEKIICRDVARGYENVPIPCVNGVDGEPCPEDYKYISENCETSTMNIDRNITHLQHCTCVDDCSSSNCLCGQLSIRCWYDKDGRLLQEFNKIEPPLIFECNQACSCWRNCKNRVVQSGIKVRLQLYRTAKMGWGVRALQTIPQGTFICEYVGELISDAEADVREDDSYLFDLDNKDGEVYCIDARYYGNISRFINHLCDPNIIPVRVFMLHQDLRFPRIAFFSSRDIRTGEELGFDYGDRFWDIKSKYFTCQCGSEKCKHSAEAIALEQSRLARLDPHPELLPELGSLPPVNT

[2] = molecular target: T2, Histone-lysine N-methyltransferase EHMT1 (Homo sapiens) (UniProt Q9H9B1); experiment: Inhibition of wild type recombinant human histone lysine methyltransferase GLP (951 to 1235 residues) expressed in Escherichia coli Rosetta BL21 DE3 PlysS assessed as zinc ions ejection from Cys4-Zn finger at >50 uM after 1 hr by circular dichroism analysis
T2 sequence (whole entry): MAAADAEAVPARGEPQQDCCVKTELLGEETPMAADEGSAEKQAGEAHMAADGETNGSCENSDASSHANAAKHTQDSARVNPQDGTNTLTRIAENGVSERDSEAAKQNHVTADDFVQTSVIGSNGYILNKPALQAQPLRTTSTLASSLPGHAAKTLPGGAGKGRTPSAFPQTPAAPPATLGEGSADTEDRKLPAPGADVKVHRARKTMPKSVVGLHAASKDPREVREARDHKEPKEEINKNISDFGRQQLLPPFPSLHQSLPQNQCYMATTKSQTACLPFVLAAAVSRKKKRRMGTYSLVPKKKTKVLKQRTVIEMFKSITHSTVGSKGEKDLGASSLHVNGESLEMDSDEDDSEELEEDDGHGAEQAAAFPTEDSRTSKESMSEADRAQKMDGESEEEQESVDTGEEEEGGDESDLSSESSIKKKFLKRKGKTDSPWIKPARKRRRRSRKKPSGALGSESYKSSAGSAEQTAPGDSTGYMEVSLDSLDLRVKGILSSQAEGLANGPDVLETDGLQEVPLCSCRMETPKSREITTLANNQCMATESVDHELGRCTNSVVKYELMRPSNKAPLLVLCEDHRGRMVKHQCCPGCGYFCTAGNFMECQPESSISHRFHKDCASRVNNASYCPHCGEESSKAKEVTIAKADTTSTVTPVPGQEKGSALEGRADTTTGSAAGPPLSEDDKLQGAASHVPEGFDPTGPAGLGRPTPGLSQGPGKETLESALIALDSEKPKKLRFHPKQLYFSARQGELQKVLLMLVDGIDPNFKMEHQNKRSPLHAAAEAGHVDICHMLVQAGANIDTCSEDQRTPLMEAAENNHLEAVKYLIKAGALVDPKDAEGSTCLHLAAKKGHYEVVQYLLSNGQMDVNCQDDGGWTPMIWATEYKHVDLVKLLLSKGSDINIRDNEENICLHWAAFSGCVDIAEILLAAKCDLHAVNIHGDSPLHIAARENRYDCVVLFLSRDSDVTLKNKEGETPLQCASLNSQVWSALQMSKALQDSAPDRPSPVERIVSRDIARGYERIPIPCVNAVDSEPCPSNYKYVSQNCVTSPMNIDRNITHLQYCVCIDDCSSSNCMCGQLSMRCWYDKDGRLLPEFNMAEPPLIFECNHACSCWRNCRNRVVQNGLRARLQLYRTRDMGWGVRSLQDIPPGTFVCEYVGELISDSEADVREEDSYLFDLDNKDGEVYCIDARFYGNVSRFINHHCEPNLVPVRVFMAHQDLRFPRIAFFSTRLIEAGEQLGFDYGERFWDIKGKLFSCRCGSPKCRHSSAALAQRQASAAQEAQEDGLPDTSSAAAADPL

[3] = molecular target: T1, Histone-lysine N-methyltransferase EHMT2 (Homo sapiens); experiment: Inhibition of wild type recombinant human histone lysine methyltransferase G9a (913 to 1193 residues) expressed in Escherichia coli Rosetta BL21 DE3 PlysS assessed as zinc ions ejection from Cys4-Zn finger at >25 uM after 1 hr by circular dichroism analysis
[4] = molecular target: T2, Histone-lysine N-methyltransferase EHMT1 (Homo sapiens); experiment: Inhibition of wild type recombinant human histone lysine methyltransferase GLP (951 to 1235 residues) expressed in Escherichia coli Rosetta BL21 DE3 PlysS assessed as zinc ions ejection from 3 types of Cys9-type Zn fingers at >25 uM after 1 hr by circular dichroism analysis
[5] = molecular target: T1, Histone-lysine N-methyltransferase EHMT2 (Homo sapiens); experiment: Inhibition of wild type recombinant human histone lysine methyltransferase G9a (913 to 1193 residues) expressed in Escherichia coli Rosetta BL21 DE3 PlysS assessed as zinc ions ejection from Cys4-Zn finger at 2.5 to 100 uM measured up to 1 min by FluoZin-3 based fluorescence assay

| Compound | inhibition [1] | inhibition [2] | inhibition [3] | inhibition [4] | inhibition [5] |
| --- | --- | --- | --- | --- | --- |
| CCN(CC)C(=S)SSC(=S)N(CC)CC | Active | Active | – | – | – |
| O=c1c2ccccc2[se]n1-c1ccccc1 [EBSELEN] | – | – | Active | Active | Active |
